This is an account of results in US5019505A, “Enzymes having alpha-glycerol-3-phosphate oxidase activity, production and use thereof” (GEnzyme (U.K.) Ltd., priority 1986, dated 1991).

The subject of assay [1] is α-glycerol-3-phosphate oxidase (α-GPO) from Propionibacterium freudenreichii subsp. freudenreichii (DSM 20270). Nature of the assay: α-GPO assay (Trinder-type H2O2 colour reaction, 505nm, 37° C.). Format: biochemical. The procedure: Aliquots of the resulting supernatant containing partially purified α-GPO were used in the following test system: […]
L-α-glycerol-3-phosphate
4-amino-antipyrine 1.5 mM
Dimethylglutarate buffer (DMG; pH 7.5)
The rate of change of absorbance was measured at 505nm, 37° C. in a spectrophotometer.

The test system of assay [2] is α-GPO from P. freudenreichii subsp. freudenreichii (NCIMB 5959). Nature of the assay: α-GPO assay (Trinder-type H2O2 colour reaction). As to conditions: read-out: Km for L-α-glycerol-3-phosphate. Format: biochemical.
The subject of assay [3] is α-GPO from P. freudenreichii subsp. shermanii (formerly P. shermanii) (NCIMB 9885). Put plainly: α-GPO assay (Trinder-type H2O2 colour reaction). It is filed as biochemical, P. freudenreichii subsp. shermanii (NCIMB 9885). The conditions noted are these: cell-free extract, read-out: Km of the α-GPO for L-α-glycerol-3-phosphate. The procedure: (§1) Freeze-dried cultures of `P. acidi-propionici`(formerly `arabinosum`) NCIMB 5958) and `P. freudenreichii` subsp. `shermanii`(formerly `P. shermanii`) (NCIMB 9885) were obtained from the National Collection of Industrial and Marine Bacteria, Torry Research Station, Aberdeen, Scotland. The organisms were grown in a similar manner to that described above for `P. freudenreichii` subsp. `freudenriechii` (DSM 20270). The microorganisms were harvested, disrupted and assayed for α-GPO again in a similar way to `P. `freudenreichii` subsp. `freudenreichii` (DSM 20270).

In assay [4] the test system is α-GPO from P. freudenreichii subsp. shermanii (NCIMB 5964). Put plainly: α-GPO assay (Trinder-type H2O2 colour reaction). Format: biochemical. As to conditions: read-out: Km for L-α-glycerol-3-phosphate.
For assay [5], the system named is α-GPO from P. acidi-propionici (formerly arabinosum) (NCIMB 5958). Nature of the assay: α-GPO assay (Trinder-type H2O2 colour reaction). Format: biochemical, P. acidi-propionici (NCIMB 5958). As to conditions: cell-free extract, read-out: Km of the α-GPO for L-α-glycerol-3-phosphate. The procedure:
as §1

For assay [6], the system named is previously described examples of α-GPO. As to conditions: prior art enzymes; read-out: Km values for L-α-glycerol-3-phosphate; cited from earlier work.
[7] abbreviates: listed as L-α0glycerol-3-phosphate.

Where “and” joins values, the source holds several entries; their conditions need not be identical. Equal values may be shown once. Read-outs that look alike come from different tables or passages of the source.

As a reminder, the Km is the concentration of substrate that gives half-maximal velocity. For the molecule `O=P(O)(O)OC[C@H](O)CO` [L-α-glycerol-3-phosphate], the Km was 15 µM in assay [1] (characterisation of the preferred enzyme, read-out: Michaelis-Menten constant (Km) in respect of L-α-glycerol-3-phosphate); 15 µM in assay [1] (high speed centrifugation supernatant, DMG pH 7.5, 37° C., 505nm, read-out: Km of the α-GPO for its substrate, L-α-glycerol-3-phosphate); 15 µM in assay [1] (pooled active fractions after Sephadex G-200 gel filtration, read-out: Km of the α-GPO for its substrate L-α-glycerol-3-phosphate); 15 µM and ~15 µM in assay [1] (read-out: Km for L-α-glycerol-3-phosphate); 26 µM and ~26 µM in assay [2]; 22 µM in assay [3] (setting [7]). The Km in assay [3] is about 22 µM; in assay [4], 6 µM and ~6 µM; in assay [5] (setting [7]) it was 18 µM; in assay [5] it was about 18 µM; in assay [6], at least 2500 µM. In addition, the “fold lower Km value than previously described α-GPO” value in assay [1] (versus Km of 2.5mM or greater of previously described α-GPO) amounted to 170 fold.
